Results taken from patent publication US8822640B2, “Tetrameric streptavidin mutein with reversible biotin binding capability” (UTI Limited Partnership, priority 2011, dated 2014).
Entries after “also recorded” stand apart in the source; their conditions may differ. Like-named read-outs stand apart in the source and are kept apart here. One block for each substance: values may come before it.

How the values were obtained:
[1] = BIAcore biosensor kinetic parameters of biotin binding in streptavidin muteins; conditions: for ka or kon / kd or koff / Kd: BIAcore, biotinylated IgG on chip, mutein injected; for t1/2, half-life of biotin in the SAV-biotin complex: estimated as 0.693/koff/60; for Kd: read-out: Kd (biotin binding affinity)
Protocol: The kinetic parameters for these muteins were determined using the BIAcore biosensor. Biotinylated IgG proteins were immobilized to the sensor chip and purified streptavidin muteins were injected to determine the binding properties:
(§1) Other methods. BIAcore biosensor for determining the kinetic parameters, preparation of streptavidin-agarose matrix and purification of biotinylated proteins were performed as previously described (Wu and Wong, 2005a; Wu and Wong, 2005b).

[2] = Ligand energy inspector, Molegro molecular viewer (MolDock score), biotin binding pocket of subunit A
Protocol: Replacement of residues in loop7-8 of the wild-type streptavidin results in allowing loop7-8 to become flexible and changing the relative orientation of subunits in the tetrameric structure. These structural changes lead to lowering of the biotin binding affinity in the 8-aa-loop-H127C mutein. The strength of biotin interaction with streptavidin was analyzed using the ligand energy inspector function in the Molegro molecular viewer program (Thomsen and Christensen, 2006). The more the negative value indicates the stronger interaction. […] In reference to the wild-type streptavidin, a few residues in the 8-aa-loop-H127C mutein have a little bit stronger interactions with biotin (data not shown). However, the net outcome is that the 8-aa-loop-H127C mutein has a weaker biotin binding affinity.

[3] = Binding to biotin-agarose, elution with 4 mM biotin, rebinding after dialysis
Protocol: In order to characterize these muteins, it is essential to purify each of these muteins for further analyses. […] After dialysis to remove any biotin from the pooled elution fraction, the purified muteins could rebind to the biotin-agarose matrix and could be eluted off again by 4 mM biotin in the buffer. This indicates the reversible biotin binding capability in these muteins.
Production and affinity purification of streptavidin muteins. Bacillus subtilis cells carrying the expression vectors were cultivated in super-rich medium (Wu et al., 2002) at 30° C. for 9-12 hours. Culture supernatant was collected by centrifugation and streptavidin muteins were affinity purified using biotin-agarose as described previously (Wu and Wong, 2005a).
Bound biotin in the 8-aa-loop-H127C mutein can be removed by dialysis. Purified 8-aa-loop-H127C muteins eluted from the biotin agarose by 4 mM biotin will contain bound biotin. If biotin binding is reversible, bound biotin should be removable by dialysis. Indeed, the dialyzed 8-aa-loop-H127C muteins could rebind to the biotin-agarose column and could be eluted off from the column by 4 mM biotin in the elution buffer (FIG. 5). […] Some 8-aa-loop-H127C mutein molecules could be observed in the flow-through fraction. This is probably because of overloading the column with excess muteins.

[4] = system: biotinylated protein G and biotinylated IgG; experiment: Mutein-agarose affinity matrix: purification of biotinylated proteins, matrix stability and reuse; conditions: comparison of FIGS. 7 and 10
Protocol: as §1
Stable subunit interactions in the 8-aa-loop-H127 mutein. The purified 8-aa-loop-H127C mutein can be immobilized to the agarose matrix with an estimated concentration of 3.8 mg/ml of settled agarose beads. […] Since it is likely that only one subunit in an tetrameric 8-aa-loop-H127C mutein was chemically coupled to the matrix (the other three subunits associated with the immobilized subunit via non-covalent interactions), this observation illustrates that the subunit interactions between the subunits in the tetrameric 8-aa-loop-H127C mutein were stable enough and the non-covalently associated subunits were not washed off from the column under the conditions used for the binding, washing and elution processes.
Application of the 8-aa-loop-H127C mutein-agarose matrices for purification of biotinylated protein G and biotinylated IgG. […] The bound biotinylated proteins could be eluted off from the column using 4 mM biotin (FIGS. 7 and 8).

[5] = literature values, cited from earlier work
[6] = known value, cited from earlier work

ka or kon [1]: 24300 M⁻¹ s⁻¹
kd or koff [1]: 7.59e-05 s⁻¹
t1/2, half-life of biotin in the SAV-biotin complex [1]: 152 min
Substance: 6-aa-loop mutein: streptavidin mutein with engineered loop7-8 D S N G S G (SEQ ID NO: 16) (DSNGSG; listed as Bacillus subtilis)

ka or kon [1]: 22100 M⁻¹ s⁻¹
kd or koff [1]: 0.000428 s⁻¹
Kd [1]: 19 nM
t1/2, half-life of biotin in the SAV-biotin complex [1]: 27 min
Difference (wild-type − mutein), Asn 23 ([2]; residue contribution): −1.1
Difference (wild-type − mutein), Asp128 ([2]; residue contribution): −3.3
Difference (wild-type − mutein), Leu 25 ([2]; residue contribution): −0.8
Difference (wild-type − mutein), Lys 121 (from subunit D) ([2]; residue contribution): −1.3
Difference (wild-type − mutein), Ser 45 ([2]; residue contribution): −1.4
Difference (wild-type − mutein), Trp 120 (from subunit D) ([2]; residue contribution): −10.5
Difference (wild-type − mutein), MolDock score ([2]; total): −14.4
Substance: 8-aa-loop-H127C mutein: tetrameric streptavidin mutein, loop7-8 replaced by D S S N G S D G, with H127C mutation (SEQ ID NO: 14) (DSSNGSDG; listed as Bacillus subtilis)
reversible biotin binding [3]: can bind to biotin-agarose and can be eluted off from the matrix by 4 mM biotin; also recorded: biotin binds to this protein in a reversible manner
binding capacity of the matrix for biotinylated protein G [4]: much better binding capacity than the matrix with the Roche streptavidin mutein

ka or kon [1]: 49600 M⁻¹ s⁻¹
kd or koff [1]: 0.0004 s⁻¹
Kd ([1]; listed as ΔW-HC): 8.1 nM
Kd [1]: ~1 nM
t1/2, half-life of biotin in the SAV-biotin complex [1]: 28.9 min
Substance: ΔWHC: streptavidin mutein with Trp-120 deleted (loop T T E A N A K) and H127C mutation (SEQ ID NO: 13) (TTEANAK; listed as Bacillus subtilis)

More lines, now with the values behind:

Substance: W120A mutein: streptavidin mutein with Trp-120 changed to alanine [reference compound]
Kd ([5]; read-out: dissociation constant (Kd) for biotin): 3 nM

Substance: Wild-type streptavidin: 52,800 dalton tetrameric protein from Streptomyces avidinii, SEQ ID NO:1
dissociation constant (Kd) for biotin [5]: 10^−13 to 10^−14 M
isoelectric point (pI) [6]: ~5
isoelectric point (pI) ([6]; listed as natural streptavidin): 5-6
